Assay results published in US20240287048A1, “SUBSTITUTED ACYL SULFONAMIDES FOR TREATING CANCER” (The Broad Institute, Inc., priority 2020, published 2024).

Columns and labels:
[1] = test system: ESR1 transcription in MVLN cells; assay: Repression of ESR1 transcription, MVLN luciferase reporter assay; format: cell-based; details: Homo sapiens, luciferase signal after 24 h, read-out: MVLN reporter assay, IC50[M] (arithmetic mean)
Text: KAT6A controls transcription of the ESR1 gene in breast cancer cells. Compound treatment that interferes with this mechanism was quantified using MVLN cells. These cells constitutively express the ER and are stably transfected with the luciferase (LUC) reporter gene and the corresponding hormone responsive element derived from the 5′-flanking region of the Xenopus Vitellogenin A2 gene (Pons et al., 1990, Demirpense et al., 1993, Joyeux et al., 1993). The repressive effect on ERα transcription activity of a test chemical is directly related to the luciferase measured in the lysate of treated MVLN cells.
Each sample was prepared as duplicate and rim wells were excluded. For luciferase signal determination 100 μl of a 1:1 mixture of Steadylite plus (Perkin Elmer; 6016759) and assay medium was added after 24 h for 15 minutes and measured in Victor X3 (Perkin Elmer). To exclude any effects caused by cell loss during the treatment, cell density was determined using Alamar Blue (Invitrogen; DAL1100). Prior to the luciferase measurement 10 μl Alamar Blue were added to each well and the plates were incubated for 2 h in the incubator. Then fluorescence was measured with Victor X3 (Perkin Elmer) at 530 nm/590 nm.

KAT6A = molecular target: T1, KAT6A (Homo sapiens, UniProt Q92794); assay: Kat6a activity assay (TR-FRET, acetylation of biotinylated histone H4 peptide); format: biochemical; details: recombinant human His-tagged Kat6a (amino acids 194-810), 60 mins at 22° C., read-out: KAT6A-DPF/HAT domain IC50 [mol/l] (arithmetic mean)
T1 construct: Recombinant human His-tagged Kat6a protein (amino acids 194-810); His; made in house; host or cells: Baculovirus-infected Sf9 insect cells
T1 sequence (Q92794 194-810): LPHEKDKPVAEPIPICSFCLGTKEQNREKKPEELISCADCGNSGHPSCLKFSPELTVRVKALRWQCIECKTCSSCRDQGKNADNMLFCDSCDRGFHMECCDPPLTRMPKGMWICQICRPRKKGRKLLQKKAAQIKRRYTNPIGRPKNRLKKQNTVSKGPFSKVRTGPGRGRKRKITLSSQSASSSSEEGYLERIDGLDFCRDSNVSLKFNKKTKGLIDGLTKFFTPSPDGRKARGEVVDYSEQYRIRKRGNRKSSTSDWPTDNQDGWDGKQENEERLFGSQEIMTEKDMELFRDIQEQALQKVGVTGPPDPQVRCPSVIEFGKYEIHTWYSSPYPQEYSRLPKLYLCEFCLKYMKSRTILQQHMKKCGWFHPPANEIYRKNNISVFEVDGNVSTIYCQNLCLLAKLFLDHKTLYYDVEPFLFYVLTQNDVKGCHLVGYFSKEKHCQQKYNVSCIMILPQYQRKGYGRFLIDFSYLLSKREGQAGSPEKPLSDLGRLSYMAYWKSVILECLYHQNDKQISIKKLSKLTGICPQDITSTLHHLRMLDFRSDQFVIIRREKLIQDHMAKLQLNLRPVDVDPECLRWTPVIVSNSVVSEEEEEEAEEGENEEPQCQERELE
Text: Kat6a inhibitory activities of the compounds described in the present invention were quantified using a Fluorescence Resonance Energy Transfer (TR-FRET) assay which measures acetylation of a synthetic, biotinylated Histone-H4-derived peptide by the enzyme.
Recombinant human His-tagged Kat6a protein (amino acids 194-810), was purified in-house from Baculovirus-infected insect cells (Sf9). Histone H4 peptide (amino acids 1-24, […]-VLRD-K(Btn)-amide), which was used as substrate, was synthesized by Biosyntan GmbH, Berlin, Germany. Acetyl Coenzyme A was purchased from Sigma-Aldrich (#A-2056).
Kat6a was incubated for 60 mins at 22° C. in the presence of different concentrations of test substances (0 μM, and within the range 0.01-20 μM) in assay buffer [25 mM Tris/HCl pH 8, 1 mM EGTA, 2.5 mM Glutathion, 0.02% Chicken Albumin, 0.05% Pluronic F127, 25 mM NaCl, 220 nM H4 peptide and 600 nM Acetyl Coenzyme A].
The reaction was stopped by addition of Detection Solution (25 mM HEPES pH 7.5, 0.1% BSA, 22 nM SAXL665 (Cisbio #610SAXLE), 100 μM Anacardic Acid (Enzo #ALX-270-381), 1 nM Anti-Histone H4 (ACETYL K8) Antibody (ABCAM #AB15823) and 0.5 nM Anti-Rabbit IgG Eu (Perkin Elmer #AD0083).
The fluorescence emission at 620 nm and 665 nm after excitation at 330-350 nm was measured in a TR-FRET measuring instrument, for instance a Rubystar or a Pherastar (both from BMG Lab Technologies, Offenburg, Germany) or a Viewlux (Perkin-Elmer). The ratio of the emission at 665 nm and at […] was used as indicator of the amount of acetylated peptide.
The resulting data (ratio) were normalized, taking 0% inhibition as the mean value of control measurements where all reagents were included. In this case 50 nl DMSO were used instead of compounds. […] IC50 values were determined by regression analysis based on a 4 parameter equation (minimum, maximum, ICM, Hill; Y=Max+(Min−Max)/(1+(X/ICso) Hill) using the Screener Software (Genedata).

IC50 [1] | IC50 (KAT6A) | Compound
1.42e-06 M | 20.8 nM | CCOc1ccc(OC(F)(F)F)cc1S(=O)(=O)NC(=O)c1cc2c(F)cc(C3CC3)cc2o1 [Example 34, 6-Cyclopropyl-N-[2-ethoxy-5-(trifluoromethoxy)phenyl]sulfonyl-4-fluoro-benzofuran-2-carboxamide]
2.98e-07 M | 4.99 nM | CC(C)c1ccc(OCC(F)(F)F)c(S(=O)(=O)NC(=O)c2cc3c(F)cc(C4CC4)cc3o2)c1 [Example 41, 6-Cyclopropyl-4-fluoro-N-[5-isopropyl-2-(2,2,2-trifluoroethoxy)phenyl]sulfonyl-benzofuran-2-carboxamide]
6.63e-07 M | 24.8 nM | CCCOc1ccccc1S(=O)(=O)NC(=O)c1cc2c(F)cc(C3CC3)cc2o1 [Example 40, 6-Cyclopropyl-4-fluoro-N-(2-propoxyphenyl)sulfonyl-benzofuran-2-carboxamide]
1.04e-07 M | 3.58 nM | CC(C)(C)c1ccc(OC2CC2)c(S(=O)(=O)NC(=O)c2cc3c(F)cc(C4CC4)cc3o2)c1 [Example 59, N-((5-(tert-butyl)-2-cyclopropoxyphenyl)sulfonyl)-6-cyclopropyl-4-fluorobenzofuran-2-carboxamide]
1.74e-06 M | 6.32 nM | CCOc1ccc(Oc2ccccc2)cc1S(=O)(=O)NC(=O)c1cc2c(F)cc(C3CC3)cc2o1 [Example 33, 6-Cyclopropyl-N-(2-ethoxy-5-phenoxy-phenyl)sulfonyl-4-fluoro-benzofuran-2-carboxamide]
1.41e-07 M | 3.01 nM | CC(C)c1ccc(OCC2CC2)c(S(=O)(=O)NC(=O)c2cc3c(F)cc(C4CC4)cc3o2)c1 [Example 36, 6-Cyclopropyl-N-[2-(cyclopropylmethoxy)-5-isopropyl-phenyl]sulfonyl-4-fluoro-benzofuran-2-carboxamide]
8.24e-08 M | 2.67 nM | CC(C)(C)c1ccc(OCc2ccccc2)c(S(=O)(=O)NC(=O)c2cc3c(F)cc(C4CC4)cc3o2)c1 [Example 60, N-[(2-(Benzyloxy)-5-(tert-butyl)phenyl)sulfonyl]-6-cyclopropyl-4-fluorobenzofuran-2-carboxamide]
1.7e-06 M | 106 nM | CCOc1c(F)cccc1S(=O)(=O)NC(=O)c1cc2c(F)cc(C3CC3)cc2o1 [Example 28, 6-Cyclopropyl-N-(2-ethoxy-3-fluoro-phenyl)sulfonyl-4-fluoro-benzofuran-2-carboxamide]
4.23e-07 M | 55.6 nM | CCOc1ccc(F)cc1S(=O)(=O)NC(=O)c1cc2c(F)cc(C3CC3)cc2o1 [Example 32, 6-Cyclopropyl-N-(2-ethoxy-5-fluoro-phenyl)sulfonyl-4-fluoro-benzofuran-2-carboxamide]
2.31e-07 M | 8.99 nM | CCOc1ccc(C(F)(F)F)cc1S(=O)(=O)NC(=O)c1cc2c(F)cc(C3CC3)cc2o1 [Example 31, 6-Cyclopropyl-N-[2-ethoxy-5-(trifluoromethyl)phenyl]sulfonyl-4-fluoro-benzofuran-2-carboxamide]
5.54e-06 M | 26.7 nM | O=C(NS(=O)(=O)c1ccccc1-c1ccccc1)c1cc2c(OC(F)F)cc(C3CC3)cc2o1 [Example 48, 6-Cyclopropyl-4-(difluoromethoxy)-N-(2-phenylphenyl)sulfonyl-benzofuran-2-carboxamide]
2.4e-07 M | 4.16 nM | CC(C)(C)c1ccc(OCC(F)(F)F)c(S(=O)(=O)NC(=O)c2cc3c(F)cc(C4CC4)cc3o2)c1 [Example 62, N-((5-(tert-butyl)-2-(2,2,2-trifluoroethoxy)phenyl)sulfonyl)-6-cyclopropyl-4-fluorobenzofuran-2-carboxamide]
2.19e-07 M | 5.99 nM | CC(C)c1ccc(OCc2ccccc2)c(S(=O)(=O)NC(=O)c2cc3c(F)cc(C4CC4)cc3o2)c1 [Example 35, N-(2-Benzyloxy-5-isopropyl-phenyl)sulfonyl-6-cyclopropyl-4-fluoro-benzofuran-2-carboxamide]
2.84e-07 M | 37.3 nM | CCOc1cc(F)ccc1S(=O)(=O)NC(=O)c1cc2c(F)cc(C3CC3)cc2o1 [Example 30, 6-Cyclopropyl-N-(2-ethoxy-4-fluoro-phenyl)sulfonyl-4-fluoro-benzofuran-2-carboxamide]
6.97e-06 M | 28.6 nM | CCOc1ccccc1S(=O)(=O)NC(=O)c1cc2c(OC(F)F)cc(C3CC3)cc2o1 [Example 49, 6-Cyclopropyl-4-(difluoromethoxy)-N-(2-ethoxyphenyl)sulfonyl-benzofuran-2-carboxamide]
1.76e-07 M | 4.33 nM | CC(C)Oc1ccc(C(C)(C)C)cc1S(=O)(=O)NC(=O)c1cc2c(F)cc(C3CC3)cc2o1 [Example 64, N-((5-(tert-Butyl)-2-isopropoxyphenyl)sulfonyl)-6-cyclopropyl-4-fluorobenzofuran-2-carboxamide]
1.11e-07 M | 2.92 nM | CC(C)(C)c1ccc(OCC2CC2)c(S(=O)(=O)NC(=O)c2cc3c(F)cc(C4CC4)cc3o2)c1 [Example 61, N-((5-(tert-butyl)-2-(cyclopropylmethoxy)phenyl)sulfonyl)-6-cyclopropyl-4-fluorobenzofuran-2-carboxamide]
1.77e-05 M | 148 nM | O=C(NS(=O)(=O)c1ccccc1)c1cc2c(OC(F)F)cc(C3CC3)cc2o1 [Example 46, N-(benzenesulfonyl)-6-cyclopropyl-4-(difluoromethoxy)benzofuran-2-carboxamide]
1.23e-07 M | 4.79 nM | CCOc1ccc(C(C)C)cc1S(=O)(=O)NC(=O)c1cc2c(F)cc(C3CC3)cc2o1 [Example 72, 6-Cyclopropyl-N-(2-ethoxy-5-isopropyl-phenyl)sulfonyl-4-fluoro-benzofuran-2-carboxamide]
8.29e-08 M | 4.5 nM | CC(C)c1ccc(OCC2CC2(F)F)c(S(=O)(=O)NC(=O)c2cc3c(F)cc(C4CC4)cc3o2)c1 (stereo not shown) [Example 67, 6-Cyclopropyl-N-{(2-[(2,2-difluorocyclopropyl)methoxy)-5-isopropylphenyl]sulfonyl}-4-fluorobenzofuran-2-carboxamide]
> 2e-05 M | 39.5 nM | CCOc1ccccc1S(=O)(=O)NC(=O)c1cc2c(-n3ccnc3)cc(C3CC3)cc2o1 [Example 58, 6-Cyclopropyl-N-(2-ethoxyphenyl)sulfonyl-4-imidazol-1-yl-benzofuran-2-carboxamide]

Compound | IC50 [1] | IC50 (KAT6A)
CC(C)(C)c1ccc(OC2CCC2)c(S(=O)(=O)NC(=O)c2cc3c(F)cc(C4CC4)cc3o2)c1 [Example 63, N-((5-(tert-Butyl)-2-cyclobutoxyphenyl)sulfonyl)-6-cyclopropyl-4-fluorobenzofuran-2-carboxamide] | 2.24e-07 M | 2.46 nM
CC(C)c1ccc(OC2CCC2)c(S(=O)(=O)NC(=O)c2cc3c(F)cc(C4CC4)cc3o2)c1 [Example 65, N-[(2-Cyclobutoxy-5-isopropylphenyl)sulfonyl]-6-cyclopropyl-4-fluorobenzofuran-2-carboxamide] | 1.49e-07 M | 2.09 nM
